The text below walks through data of the METLIN SMRT retention time set (Domingo-Almenara et al. 2019).

The series is described as follows: gradient 5% acetonitrile 3 min, to 50% in 2 min, to 85% in 15 min, held 3 min, 100 µL/min. The settings on record: column: Zorbax Extend-C18 2.1 x 50 mm; eluents: water / acetonitrile, 0.1% formic acid. Put shortly:
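Over 3 months, pure standards in mixtures of ~100 molecules were run by HPLC coupled to a quadrupole time-of-flight mass spectrometer in positive and negative ionization mode. The column was a Zorbax Extend-C18 (2.1 × 50 mm, 1.8 μm) at 100 μL/min, eluted with water and acetonitrile each holding 0.1% formic acid, with 40 μL dead and 900 μL dwell volumes. Retention time was determined from adduct peaks chosen by software and checked manually.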
`Cc1ccc(C2=NC3(CCN(C(=O)c4ccc5c(c4)OCO5)CC3)NC2=O)cc1C` had an RP-LC retention time of 831 s.

In turn, `CCS(=O)(=O)N1[C@H]2CC[C@@H]1c1cnc(-c3ccc(F)cc3)nc1C2` showed an RP-LC retention time of 945 s.

The compound `Cc1cnn(CC(=O)N2CC(F)(F)C[C@H]2c2nc(C3CC3)no2)c1` yielded an RP-LC retention time of 703 s.

In turn, `CN(C)c1ccc(-c2nc3cnccn3c2Nc2cccc(C(N)=O)c2)cc1` yielded an RP-LC retention time of 609 s.

Compound `COCc1cc2nn(CC(=O)NC3CCCCC3)c(=O)n2c(-c2ccccc2)n1` had an RP-LC retention time of 785 s.

In turn, `Cc1cc(C)cc(C(=O)N2CCN(c3nc(C)cc(N4CCCCC4)n3)CC2)c1` displayed an RP-LC retention time of 765 s.

The compound `CCNc1cc(N2CCC(CCC(=O)NC3CCN(C(=O)OCC)CC3)CC2)ncn1` gave an RP-LC retention time of 620 s.

In turn, `O=C(NC1CCCCC1)c1ccc2c(c1)N(Cc1ccccc1)C(=O)CO2` displayed an RP-LC retention time of 921 s.

In turn, `CSc1cccc(NC(=O)Cn2c(=O)c(CCC(=O)NCC(C)C)nc3ccccc32)c1` gave an RP-LC retention time of 846 s.

With `Cc1cc(C)cc(NC(=O)c2csc(-c3cn(C)c4ncccc34)n2)c1`, the RP-LC retention time turned out to be 1050 s.

With `COc1cc(NC(=O)N(C)Cc2nc3cc(C(=O)N(C)C)ccc3n2C)cc(OC)c1`, the RP-LC retention time was 610 s.

`O=C(NCCNC(=O)c1cccc(Cl)c1)c1ccc(NC(=O)C2CC2)cc1` registered an RP-LC retention time of 667 s.

In turn, `CCc1nc2cc(-c3noc(-c4cncc(Br)c4)n3)ccc2o1` displayed an RP-LC retention time of 1160 s.

`O=C(Nc1cc(F)cc(F)c1)c1c(O)c2cccnc2n(-c2cccc(F)c2)c1=O` registered an RP-LC retention time of 1310 s.

Turning to `COc1ccc(-c2ncc3c(n2)CCN(C(=O)Nc2ccccc2OC)C3)cc1`, the RP-LC retention time came out at 905 s.

`COc1ccc(C(=O)N2CCC3(CC2)NC(=O)c2ccccc2N3C)cc1OC` yielded an RP-LC retention time of 676 s.

`O=C(Cc1c[nH]c2ccccc12)N1CCN(C(=O)c2cc(-c3ccncc3)n[nH]2)CC1` displayed an RP-LC retention time of 578 s.

`CCNc1ncnc2sc3c(c12)CCN(C(=O)CC)C3` came in with an RP-LC retention time of 617 s.

Compound `CCOC(=O)CSc1nnc2n1CCN2c1ccc(OC)cc1` gave an RP-LC retention time of 707 s.

Regarding `CCOc1cccc(-c2noc(-c3nnn4c3COC(c3ccc(Cl)cc3)C4)n2)c1` (stereo unspecified), the RP-LC retention time was found to be 1320 s.

As for `c1ccc(-c2nnc(Cc3nc(-c4ccc5c(c4)OCO5)no3)o2)cc1`, the RP-LC retention time is 957 s.

Consider `CCN1C(=O)c2cccc3c(NC(=O)c4ccc(C(=O)OC)cc4)ccc1c23`, for which the RP-LC retention time was 638 s.

For `Cc1cccc(S(=O)(=O)N2CCc3c(C(=O)NCCCN4CCCCC4)cccc32)c1`, the RP-LC retention time was determined as 680 s.

`Nc1nc(S(=O)(=O)Cc2ccccc2)ns1`: the RP-LC retention time is 637 s.

On to `CCc1ccccc1S(=O)(=O)N1CC=C(c2cn(C)c3ncccc23)CC1`, for which the RP-LC retention time stood at 1090 s.

For the compound `COc1ccc(C(=O)N2CCN(c3cc(-c4cccs4)[nH]n3)CC2)cc1`, the RP-LC retention time turned out to be 749 s.

In turn, `O=C(CSc1ncnc2nc[nH]c12)Nc1ccccc1C(F)(F)F` returned an RP-LC retention time of 618 s.

Compound `O=C(NCc1ccc(Cl)cc1)C1CCN(C(=O)C2Sc3ccccc3NC2=O)CC1` (stereo unspecified) registered an RP-LC retention time of 765 s.

Compound `CCCN(C)c1nccnc1OC1CCN(C(=O)C2CC2)C1` (stereo unspecified) returned an RP-LC retention time of 724 s.

The compound `CCn1cc(CC(=O)NCc2cc(F)cc(F)c2)c2cccnc21` yielded an RP-LC retention time of 739 s.

The compound `Cc1nc(-c2noc(-c3ccc(F)cc3)n2)cn1CC(=O)Nc1ccc2c(c1)CCC2` yielded an RP-LC retention time of 966 s.

Compound `CN(C)c1ccc(/C=C2\C(=O)Nc3ccccc32)cc1` registered an RP-LC retention time of 1010 s.

`COc1cc(N)c(Cl)cc1C(=O)OCCCN1CCCCC1` came in with an RP-LC retention time of 655 s.

Turning to `COc1ccc(NC(=O)N2CCC(c3nc(C(=O)N4CCCCC4)c(C)o3)CC2)cc1F`, the RP-LC retention time was 784 s.

`CCS(=O)(=O)N1CCCc2cc(C(=O)NCCC(C)C)ccc21` gave an RP-LC retention time of 884 s.

In turn, `Cc1cccc(S(=O)(=O)N2CC(F)(F)C[C@H]2CN2CCc3ccccc3C2)c1` returned an RP-LC retention time of 773 s.

As to `COc1cccc(-c2noc(C3CCCN3C(=O)c3ccc(C)s3)n2)c1` (stereo unspecified), the RP-LC retention time was found to be 997 s.

Regarding `CCOCCCNC(=O)C1CCCN(c2ccc(-c3ccc(C)c(C)c3)nn2)C1` (stereo unspecified), the RP-LC retention time worked out at 687 s.

For the compound `CCc1noc([C@@H]2CC(F)(F)CN2C(=O)c2occc2C)n1`, the RP-LC retention time is 840 s.

For the compound `CCC(C)NC(=O)c1cnn(-c2ccc(-c3nc(C4CC4)no3)cn2)c1C` (stereo unspecified), the RP-LC retention time is 899 s.

Take `Cc1cc2n(n1)CCCN2C(=O)CCC(=O)N1CCN(c2ccccc2)CC1`: the RP-LC retention time came out at 678 s.

Turning to `CCN1c2ccc(C)cc2C(=O)NC12CCN(C(=O)c1ccccc1OC)CC2`, the RP-LC retention time was found to be 786 s.

`COc1ccc(CN2CCOC2=O)cc1OC`: the RP-LC retention time was 649 s.

As for `CCOC(=O)c1noc2nc(C)nc(NCc3ccc(CC)cc3)c12`, the RP-LC retention time stood at 722 s.

In the case of `C=CCNC(=O)c1cnn(-c2ccc(-c3nc(C(C)C)no3)cn2)c1C`, the RP-LC retention time came out at 903 s.

Regarding `Cc1ccc(Nc2c(-c3ccc(N(C)C)cc3)nc3ncccn23)cc1`, the RP-LC retention time stood at 742 s.

For the compound `CC(C)NC(=O)N1CCC(c2noc(-c3ccccn3)n2)C1` (stereo unspecified), the RP-LC retention time worked out at 648 s.

In turn, `CCCN(CCC)CCCNC(=O)C1CCCN(c2ncc(-c3ccccc3)cn2)C1` (stereo unspecified) had an RP-LC retention time of 719 s.

With `CC(C)OCCCNC(=O)Cn1nc2c(cc1=O)CCCCC2`, the RP-LC retention time worked out at 698 s.

On to `Cc1ccc2c(Nc3ccc(C)c(C)c3)c(C(=O)N3CCOCC3)cnc2n1`, for which the RP-LC retention time amounted to 593 s.

As to `COCCN1CCn2cc(S(=O)(=O)Nc3ccccc3OC)cc2C1=O`, the RP-LC retention time worked out at 679 s.

In the case of `Cc1cc2[nH]c(C(=O)Nc3cc(F)c(F)cc3F)c(CN(C)C)c2s1`, the RP-LC retention time was 664 s.

Regarding `CCCN1CCC[C@@H](c2cccc(O)c2)C1`, the RP-LC retention time amounted to 596 s.

`CCn1c(SCC(=O)Nc2ccc3c(c2)OCO3)nnc1-c1cn(C)nc1-c1ccc(Cl)cc1` showed an RP-LC retention time of 819 s.

In the case of `CCn1cc(CN2CCC(N3C(=O)C4(CCCC4)C3c3ccccc3)CC2)cn1` (stereo unspecified), the RP-LC retention time stood at 673 s.

The compound `CC1=C(c2ccc(C)c(C)c2)S(=O)(=O)N=C1N1CCCN(C(=O)C2CCCO2)CC1` (stereo unspecified) yielded an RP-LC retention time of 790 s.

`COc1ccc(C)cc1NS(=O)(=O)c1ccc(-c2nnc(C3CCC3)o2)o1` registered an RP-LC retention time of 922 s.

As to `CC(CNC(=O)C1CCN(S(=O)(=O)c2cn(C(C)C)cn2)CC1)c1ccccc1` (stereo unspecified), the RP-LC retention time came to 764 s.

On to `CCN1CCN(CCNC(=O)C2CCN(c3nc4cccnc4s3)CC2)CC1`, for which the RP-LC retention time was determined as 559 s.

Compound `CC(C)Cn1c(=O)c(C(=O)NC2CCN(Cc3ccccc3)CC2)nc2cccnc21` registered an RP-LC retention time of 670 s.

The compound `CC1(CNS(=O)(=O)c2ccc(F)c(F)c2)CCOCC1` registered an RP-LC retention time of 810 s.

Regarding `CC(C)n1cc(S(=O)(=O)Nc2ccc(Cl)cc2F)c2cccnc21`, the RP-LC retention time is 950 s.

As to `CC(C)n1cnc(S(=O)(=O)N2CCC(C(=O)NC3CCCCCCC3)CC2)c1`, the RP-LC retention time came out at 827 s.

For the compound `N#C/C(=C\c1ccc(-c2cc(Cl)ccc2Cl)o1)C(=O)Nc1cccc2ncccc12`, the RP-LC retention time was found to be 1110 s.

As to `Cn1c(=O)c(N2CCC(NC(=O)Nc3cccc(Br)c3)CC2)nc2ccccc21`, the RP-LC retention time was determined as 965 s.

The compound `Cc1ccc(Nc2c(-c3ccc(Cl)cc3)nc3ccc(Cl)cn23)cc1` came in with an RP-LC retention time of 1060 s.

In turn, `O=C(Cn1nc2n(c1=O)CCCCC2)Nc1ccc2c(c1)OCO2` had an RP-LC retention time of 655 s.

The compound `CC(C)N1CCN(C(=O)c2csc(-c3ccc(N4CCCC4)nc3)n2)CC1` showed an RP-LC retention time of 559 s.

Take `Cc1cc(C)c(NC(=O)Cn2cnc3c(sc4nc(-c5ccccc5)ccc43)c2=O)c(C)c1`: the RP-LC retention time came out at 1050 s.

`COc1cc(NC(=O)N(C)CCc2noc(COc3ccc(F)cc3)n2)cc(OC)c1` had an RP-LC retention time of 874 s.

On to `Cc1cc(C)n(-c2cc(NCc3ccccn3)ncn2)n1`, for which the RP-LC retention time stood at 600 s.

`Cc1cc2c(cc(C(=O)NCCCc3ccccc3)n2Cc2ccc(Cl)cc2)o1` returned an RP-LC retention time of 1270 s.

In the case of `CCCNC(=O)N1CCCN(C2=NS(=O)(=O)C(c3ccc(Cl)cc3)=C2C)CC1`, the RP-LC retention time was 794 s.

For the compound `CN1C(=O)c2cccnc2Sc2cc(C(=O)NCc3ccccc3Cl)ccc21`, the RP-LC retention time is 806 s.

The compound `CCCn1c(CCc2ccccc2NS(=O)(=O)c2ccc3c(c2)OCCO3)nc2ccccc21` showed an RP-LC retention time of 763 s.

As for `CCCCCC(=O)Nc1cc(-c2nc3ccc(C)cc3[nH]2)ccc1C`, the RP-LC retention time worked out at 750 s.

Take `COc1ccc(-c2cc3c(=O)n(Cc4nc(-c5ccccc5Br)no4)ncn3n2)cc1`: the RP-LC retention time turned out to be 1090 s.

In turn, `CCCNC(=O)C1=Cc2cc(Br)ccc2OC=C1` gave an RP-LC retention time of 944 s.

On to `O=C([C@@H]1C[C@H](F)CN1C(=O)c1ccc(F)cc1)N1CCCCC1`, for which the RP-LC retention time was determined as 684 s.

With `COc1ccc(-c2nc(CN3C(=O)C(O)(c4ccccc4)c4ccccc43)c(C)o2)cc1` (stereo unspecified), the RP-LC retention time was determined as 1040 s.

As for `Cc1ccc2nc(C(=O)NCc3cccc(F)c3)cn2c1`, the RP-LC retention time amounted to 689 s.
